Patent US20180127374A1, “BE[…] AS OPIOID RECEPTORS MODULATORS” (Purdue Pharma L.P., priority 2012, published 2018)
Read-outs that look alike come from different tables or passages of the source.

Assays:
μ-opioid receptor [1] = molecular target: T1, μ-opioid receptor (Homo sapiens, UniProt P35372); experiment: μ-opioid receptor radioligand dose-displacement binding assay
Description: Radioligand dose-displacement binding assays for μ-opioid receptors used 0.3 nM [^3H]-diprenorphine (Perkin Elmer, Shelton, Conn.), with […] membrane protein/well in a final volume of […] binding buffer (10 mM MgCl2, 1 mM EDTA, 5% DMSO, 50 mM HEPES, pH 7.4). Reactions were carried out in the absence or presence of increasing concentrations of unlabeled naloxone. All reactions were conducted in 96-deep well polypropylene plates for 2 hr at room temperature. […] The data were analyzed using the one-site competition curve fitting functions in GraphPad PRISM™ v. 3.0 or higher (San Diego, Calif.), or an in-house function for one-site competition curve-fitting.
Target sequence in this assay (P35372 whole entry): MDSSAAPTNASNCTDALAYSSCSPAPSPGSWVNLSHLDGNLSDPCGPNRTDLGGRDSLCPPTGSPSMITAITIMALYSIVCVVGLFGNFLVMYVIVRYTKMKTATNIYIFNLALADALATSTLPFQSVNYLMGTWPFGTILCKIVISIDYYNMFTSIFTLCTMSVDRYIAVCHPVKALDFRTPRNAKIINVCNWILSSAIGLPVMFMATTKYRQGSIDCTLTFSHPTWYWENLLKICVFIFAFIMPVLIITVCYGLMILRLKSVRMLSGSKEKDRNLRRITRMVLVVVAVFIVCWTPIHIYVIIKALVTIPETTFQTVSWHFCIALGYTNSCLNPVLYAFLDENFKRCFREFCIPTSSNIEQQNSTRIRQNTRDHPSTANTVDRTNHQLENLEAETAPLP

κ opioid receptor [2] = molecular target: T2, κ opioid receptor (Homo sapiens, UniProt P41145); experiment: κ-opioid receptor [35S]GTPγS functional assay; format: biochemical; set-up: expressed in transfected cells; conditions: for Emax: relative to the effect elicited by U69,593
T2 sequence (P41145 whole entry): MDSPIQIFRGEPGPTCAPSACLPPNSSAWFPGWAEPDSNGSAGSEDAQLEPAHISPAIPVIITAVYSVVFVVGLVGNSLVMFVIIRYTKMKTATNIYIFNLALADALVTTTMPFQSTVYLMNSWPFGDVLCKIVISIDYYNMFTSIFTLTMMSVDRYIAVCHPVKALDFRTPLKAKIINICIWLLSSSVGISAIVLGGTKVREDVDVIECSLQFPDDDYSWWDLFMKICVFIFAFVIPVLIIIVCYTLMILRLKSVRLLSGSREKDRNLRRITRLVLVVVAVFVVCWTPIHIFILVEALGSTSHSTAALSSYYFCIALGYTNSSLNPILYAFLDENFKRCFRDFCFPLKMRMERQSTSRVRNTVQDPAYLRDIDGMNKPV
Description: Functional [^35S]GTPγS binding assays were conducted as follows. κ opioid receptor membrane solution was prepared by sequentially adding final concentrations of 0.026 μg/μl κ membrane protein (in-house), 10 μg/mL saponin, 3 μM GDP and 0.20 nM [^35S]GTPγS to binding buffer (100 mM NaCl, 10 mM MgCl2, 20 mM HEPES, pH 7.4) on ice. The prepared membrane solution (190 μl/well) was transferred to 96-shallow well polypropylene plates containing 10 μl of 20× concentrated stock solutions of agonist prepared in DMSO. Plates were incubated for 30 min at a temperature of about 25° C. with shaking.
κ GTP EC50 is the concentration of a compound providing 50% of the maximal response for the compound at a κ receptor.
κ GTP Emax (%) is the maximal effect elicited by a compound relative to the effect elicited by U69,593.

μ-opioid receptor [3] = molecular target: T1, μ-opioid receptor; experiment: μ-opioid receptor [35S]GTPγS functional assay; format: biochemical; set-up: purchased Perkin Elmer, Shelton, Conn; conditions: for EC50: μ-receptor membranes, read-out: GTPγS μ EC50; for Emax: relative to the effect elicited by DAMGO
Description: [^35S]GTPγS functional assays were conducted using freshly thawed μ-receptor membranes (Perkin Elmer, Shelton, Conn.). Assay reactions were prepared by sequentially adding the following reagents to binding buffer (100 mM NaCl, 10 mM MgCl2, 20 mM HEPES, pH 7.4) on ice (final concentrations indicated): membrane protein (0.026 mg/mL), saponin ([…]), GDP ([…]) and [^35S]GTPγS (0.20 nM; Perkin Elmer, Shelton, Conn.). The prepared membrane solution (190 μl/well) was transferred to 96-shallow well polypropylene plates containing 10 μI of 20× concentrated stock solutions of the agonist [D-Ala^e, N-methyl-Phe^4 Gly-ol^5]-enkephalin (DAMGO) prepared in dimethyl sulfoxide (DMSO). Plates were incubated for 30 min at about 25° C. with shaking. […] Data were analyzed using the sigmoidal dose-response curve fitting functions in GraphPad PRISM v. 3.0, or an in-house function for non-linear, sigmoidal dose-response curve-fitting.
μ GTP EC50 is the concentration of a compound providing 50% of the maximal response for the compound at a μ-opioid receptor.
μ GTP Emax (%) is the maximal effect elicited by a compound relative to the effect elicited by DAMGO, a standard μ agonist. Generally, the μ GTP Emax (%) value measures the efficacy of a compound to treat or prevent pain or other Conditions.
Target sequence in this assay (P35372 whole entry, species assumed): as the sequence (P35372 whole entry) above

κ opioid receptor [4] = molecular target: T2, κ opioid receptor; experiment: κ-opioid receptor radioligand dose displacement binding assay; set-up: expressed in transfected cells; host or cells: HEK-293
Description: Membranes from recombinant HEK-293 cells expressing the human κ opioid receptor (κ) (cloned in house) were prepared by lysing cells in ice cold hypotonic buffer (2.5 mM MgCl2, 50 mM HEPES, pH 7.4) (10 mL/10 cm dish) followed by homogenization with a tissue grinder/Teflon pestle. Membranes were collected by centrifugation at 30,000×g for 15 min at 4° C. and pellets were resuspended in hypotonic buffer to a final concentration of 1-3 mg/mL. Protein concentrations were determined using the BioRad protein assay reagent with bovine serum albumen as standard. Aliquots of κ receptor membranes were stored at […]

[5] = [3H]-diprenorphine displacement, read-out: Ki (nM) Opioid Receptor μ
[6] = κ membrane protein (in-house), read-out: GTPγS κ EC50
[7] = [3H]-U69,593 displacement, HEK-293 membranes, read-out: Ki (nM) Opioid Receptor κ

Row | Structure (SMILES) | Ki (μ-opioid receptor [1]; [5]) [nM] | Emax (κ opioid receptor [2]) [%] | EC50 (κ opioid receptor [2]; [6]) [µM] | EC50 (μ-opioid receptor [3]; μM) [µM] | Ki (κ opioid receptor [4]; [7]) [nM] | Emax (μ-opioid receptor [3]) [%] | EC50 (μ-opioid receptor [3]) [µM] | Ki (κ opioid receptor [4]; [3H]-U69,593 displacement, μM, read-out: Ki Opioid Receptor κ) [nM] | EC50 (κ opioid receptor [2]; κ membrane protein (in-house), μM, read-out: GTPγS κ EC50) [µM] | Ki (μ-opioid receptor [1]) [nM] | EC50 (κ opioid receptor [2]) [µM] | Ki (κ opioid receptor [4]) [nM]
1 | C[C@H]1C2Cc3ccc(O)cc3[C@@]1(CCCC(N)=O)CCN2CC1CC1 [Compound 2, 4-((6S,11R)-3-(cyclopropylmethyl)-8-hydroxy-11-methyl-1,2,3,4,5,6-hexahydro-2,6-methanobenzo[d]azocin-6-yl)butanamide] | 10.7 ± 1.82 | 67.3 | 0.00898 | > 20 | 0.49 ± 0.11 |  |  |  |  |  |  | 
2 | COc1ccc2c(c1)[C@@]1(CCCCOCc3ccccc3)CCN(CC3CC3)C(C2)[C@@H]1C [Compound 12, (6S,11R)-6-(4-(benzyloxy)butyl)-3-(cyclopropylmethyl)-8-methoxy-11-methyl-1,2,3,4,5,6-hexahydro-2,6-methanobenzo[d]azocine] | 166 ± 51.8 | 97.7 | 0.0144 |  | 0.27 ± 0.01 | 30.8 | 0.58 |  |  |  |  | 
3 | COc1ccc2c(c1)[C@@]1(CC(=O)O)CCN(CC3CC3)[C@@H](C2)[C@H]1C [Compound 29, 2-((2S,6R,11S)-3-(cyclopropylmethyl)-8-methoxy-11-methyl-1,2,3,4,5,6-hexahydro-2,6-methanobenzo[d]azocin-6-yl)acetic acid] |  |  |  |  |  | 24.8 | 0.346 | > 20000 |  |  |  | 
4 | COc1ccc2c(c1)[C@@]1(CC(=O)O)CCN(CC3CC3)C(C2)[C@@H]1C [Compound 5, 2-((6R,11R)-3-(cyclopropylmethyl)-8-methoxy-11-methyl-1,2,3,4,5,6-hexahydro-2,6-methanobenzo[d]azocin-6-yl)acetic acid] |  |  |  | > 20 | 4460 ± 1850 |  |  |  |  |  |  | 
5 | C[C@H](NC(=O)C[C@@]12CCN(CC3CC3)C(Cc3ccc(O)cc31)[C@@H]2C)C(N)=O [Compound 1, (2S)-2-(2-((6R,11R)-3-(cyclopropylmethyl)-8-hydroxy-11-methyl-1,2,3,4,5,6-hexahydro-2,6-methanobenzo[d]azocin-6-yl)acetamido)propanamide] | 31.7 ± 6.24 | 31.3 | 0.00891 | > 20 | 1.48 ± 0.27 |  |  |  |  |  |  | 
6 | CC(C)N1CC[C@@]2(CCCC(N)=O)c3cc(O)ccc3C[C@@H]1[C@@H]2C [Compound 17, 4-((2R,6R,11R)-8-hydroxy-3-isopropyl-11-methyl-1,2,3,4,5,6-hexahydro-2,6-methanobenzo[d]azocin-6-yl)butanamide] | 165 ± 6.97 | 60.7 | 0.107 |  | 5 ± 0.53 | 38 | 0.0682 |  |  |  |  | 
7 | C[C@H]1[C@H]2Cc3ccc(O)cc3[C@]1(CCCC(N)=O)CCN2CC1CC1 [Compound 20, 4-((2R,6R,11R)-3-(cyclopropylmethyl)-8-hydroxy-11-methyl-1,2,3,4,5,6-hexahydro-2,6-methanobenzo[d]azocin-6-yl)butanamide] | 5.38 ± 0.43 | 58.2 | 0.006 |  | 0.08 ± 0.01 | 19 | 0.00318 |  |  |  |  | 
8 | COc1ccc2c(c1)[C@@]1(CC(=O)N[C@@H](C)C(N)=O)CCN(CC3CC3)C(C2)[C@@H]1C [Compound 7, (2S)-2-(2-((6R,11R)-3-(cyclopropylmethyl)-8-methoxy-11-methyl-1,2,3,4,5,6-hexahydro-2,6-methanobenzo[d]azocin-6-yl)acetamido)propanamide] |  | 29.7 | 5 | > 20 | 193 ± 68.7 |  |  |  |  |  |  | 
9 | C[C@H]1[C@H]2Cc3ccc(O)cc3[C@]1(CCNC(=O)CN(C)C)CCN2CC1CC1 [Compound 30, N-(2-((2R,6R,11R)-3-(cyclopropylmethyl)-8-hydroxy-11-methyl-1,2,3,4,5,6-hexahydro-2,6-methanobenzo[d]azocin-6-yl)ethyl)-2-(dimethylamino)acetamide] |  | 96.5 | 0.00177 |  | 0.05 ± 0.02 | 82.2 | 0.00485 |  |  |  |  | 
10 | COC(=O)c1cccc(C(=O)NCC[C@]23CCN(CC4CC4)[C@H](Cc4ccc(OC)cc42)[C@@H]3C)c1 [Compound 26, methyl 3-((2-((2R,6R,11R)-3-(cyclopropylmethyl)-8-methoxy-11-methyl-1,2,3,4,5,6-hexahydro-2,6-methanobenzo[d]azocin-6-yl)ethyl)carbamoyl)benzoate] | 158 ± 44.3 | 105 | 0.0153 |  | 0.51 ± 0.07 | 95 | 0.0461 |  |  |  |  | 
11 | COc1ccc2c(c1)[C@]1(CCNC(=O)c3cccc(C(=O)O)c3)CCN(CC3CC3)[C@H](C2)[C@@H]1C [Compound 24, 3-((2-((2R,6R,11R)-3-(cyclopropylmethyl)-8-methoxy-11-methyl-1,2,3,4,5,6-hexahydro-2,6-methanobenzo[d]azocin-6-yl)ethyl)carbamoyl)benzoic acid] |  | 88.7 | 0.664 |  | 130 ± 26.5 | 76.3 | 0.251 |  |  |  |  | 
12 | C[C@H]1[C@H]2Cc3ccc(O)cc3[C@]1(CCOc1ccc(C(=O)O)cc1)CCN2CC1CC1 [Compound 28, 4-(2-((2R,6S,11R)-3-(cyclopropylmethyl)-8-hydroxy-11-methyl-1,2,3,4,5,6-hexahydro-2,6-methanobenzo[d]azocin-6-yl)ethoxy)benzoic acid] |  | 110 | 0.0391 |  | 5.75 ± 1.04 | 86.3 | 0.00592 |  |  |  |  | 
13 | C[C@H]1[C@H]2Cc3ccc(O)cc3[C@]1(CCCC(N)=O)CCN2Cc1ccccc1 [Compound 19, 4-((2R,6R,11R)-3-benzyl-8-hydroxy-11-methyl-1,2,3,4,5,6-hexahydro-2,6-methanobenzo[d]azocin-6-yl)butanamide] | 2.65 ± 0.36 |  |  |  |  | 13.7 | 0.0401 |  | > 20 |  |  | 
14 | COc1ccc2c(c1)[C@@]1(CCC[C@@H](O)CO)CCN(CC3CC3)C(C2)[C@@H]1C [Compound 10, (2R)-5-((6S,11R)-3-(cyclopropylmethyl)-8-methoxy-11-methyl-1,2,3,4,5,6-hexahydro-2,6-methanobenzo[d]azocin-6-yl)pentane-1,2-diol] |  | 95 |  |  |  |  |  |  |  | 3090 ± 922 | 0.0943 | 6.68 ± 0.61
15 | COc1ccc2c(c1)[C@]1(CCNC(=O)c3ccc(C(=O)O)cc3)CCN(CC3CC3)[C@H](C2)[C@@H]1C [Compound 25, 4-((2-((2R,6R,11R)-3-(cyclopropylmethyl)-8-methoxy-11-methyl-1,2,3,4,5,6-hexahydro-2,6-methanobenzo[d]azocin-6-yl)ethyl)carbamoyl)benzoic acid] |  | 69.3 | 2.41 |  | 479 ± 36.3 | 104 | 0.584 |  |  |  |  | 
16 | COc1ccc2c(c1)[C@]1(CCOc3ccc(C(=O)O)cc3)CCN(CC3CC3)[C@H](C2)[C@@H]1C [Compound 27, 4-(2-((2R,6S,11R)-3-(cyclopropylmethyl)-8-methoxy-11-methyl-1,2,3,4,5,6-hexahydro-2,6-methanobenzo[d]azocin-6-yl)ethoxy)benzoic acid] |  | 88.3 | 3.69 |  | 330 ± 70.1 | 94.7 | 0.245 |  |  |  |  | 
17 | C[C@H]1[C@H]2Cc3ccc(O)cc3[C@@]1(CCNC(=O)CN)CCN2CC1CC1 [Compound 31] |  | 90.3 | 0.0012 |  | 0.07 ± 0.01 | 102 | 0.00287 |  |  |  |  | 
